Data set [1] is described as follows: physchem. How it is done:
The methionine solubility at 35° C. is approximately 70 g/L. If the solution is concentrated to approximately 250 g/L, under a vacuum ensuring a temperature of 35° C., the solid methionine recovery yield is >70%. Under these conditions, and by virtue of the removal of the soluble impurities, the solid methionine crystallizes in the form of spongy spheres which are easy to separate from the mother liquors.
The fermentation supernatant issued from step ii) was concentrated to approximately 250 g·L^−1 and ethanol has been added at different proportions 0%, 30% and 70% (corresponding to the ratio solvent/(methionine containing fraction+solvent) in weight). The theoretical yield of recovery has been determined in function of ethanol content.

A short description of data set [2]: physchem. The conditions noted are these: Residual solubility L-Methionine. How it is done: The amount of product in the fermentation medium or in the different downstream process fluxes such as supernatant, permeate or mother liquors of crystallization can be determined using a number of methods known in the art, for example, high performance liquid chromatography (HPLC) or gas chromatography (GC). For example the quantity of methionine obtained in the medium is measured by HPLC after OPA/FMOC derivatization using L-methionine (Fluka, Ref 64319) as a standard.
Different solvents were assayed on the fermentation concentrated supernatant issued from step ii) with the same ratio of 70% (solvent/(methionine containing fraction+solvent), in weight).

SMILES strings stand for the structures. Values after ≈ are worked out from the molar mass of the structure shown.

What is called solubility is how much of the substance goes into solution per volume. For `CSCC[C@H](N)C(=O)O` [L-methionine], the solubility in data set [1] (35 °C) was about 70000 µg/mL (≈ 469 mM); in data set [1] (37 °C) it was about 70000 µg/mL (≈ 469 mM); in data set [2] (concentrated fermentation supernatant with added solvent, 4 °C, aqueous with cosolvent or surfactant or cyclodextrin, Ethanol, ratio 70% by weight), 4000 to 5000 µg/mL; in data set [2] (concentrated fermentation supernatant with added solvent, 4 °C, aqueous with cosolvent or surfactant or cyclodextrin, Isopropanol, ratio 70% by weight), 4000 to 5000 µg/mL; in data set [2] (concentrated fermentation supernatant with added solvent, 4 °C, aqueous with cosolvent or surfactant or cyclodextrin, Methanol, ratio 70% by weight), 5000 to 6000 µg/mL; in data set [2] (concentrated fermentation supernatant with added solvent, aqueous with cosolvent or surfactant or cyclodextrin, 2-Butanone, ratio 70% by weight, room temperature) it was over 15000 µg/mL. Moreover, the solubility in data set [2] (concentrated fermentation supernatant with added solvent, aqueous with cosolvent or surfactant or cyclodextrin, Acetonitrile, ratio 70% by weight, room temperature) was 5500 to 6500 µg/mL; in data set [2] (concentrated fermentation supernatant with added solvent, aqueous with cosolvent or surfactant or cyclodextrin, Ethanol, ratio 70% by weight, room temperature) it was 5000 to 6000 µg/mL; in data set [2] (concentrated fermentation supernatant with added solvent, aqueous with cosolvent or surfactant or cyclodextrin, Isopropanol, ratio 70% by weight, room temperature) it was 5000 to 6000 µg/mL; in data set [2] (concentrated fermentation supernatant with added solvent, aqueous with cosolvent or surfactant or cyclodextrin, Methanol, ratio 70% by weight, room temperature) it was 7000 to 8000 µg/mL; in data set [2] (concentrated fermentation supernatant, plasma or biological fluid, no solvent (Reference), room temperature) it was 65000 µg/mL (≈ 436 mM).

The values above are taken from patent US20180355390A1, “Method to produce L-methionine by a fermentative production” (Evonik Degussa GmbH, priority 2016, published 2018).
